Values quoted from earlier work as cited in patent US20090082349A1, “THIAZOLONES FOR USE AS PI3 KINASE INHIBITORS” (priority 2006, published 2009).
Like-named read-outs stand apart in the source and are kept apart here.

What was measured:
Class I PI3-kinases = details: each of the four Class I PI3-kinases
CK2 protein kinase = CK2 protein kinase (Homo sapiens, UniProt P68400)
Sequence of CK2 protein kinase (P68400 whole entry): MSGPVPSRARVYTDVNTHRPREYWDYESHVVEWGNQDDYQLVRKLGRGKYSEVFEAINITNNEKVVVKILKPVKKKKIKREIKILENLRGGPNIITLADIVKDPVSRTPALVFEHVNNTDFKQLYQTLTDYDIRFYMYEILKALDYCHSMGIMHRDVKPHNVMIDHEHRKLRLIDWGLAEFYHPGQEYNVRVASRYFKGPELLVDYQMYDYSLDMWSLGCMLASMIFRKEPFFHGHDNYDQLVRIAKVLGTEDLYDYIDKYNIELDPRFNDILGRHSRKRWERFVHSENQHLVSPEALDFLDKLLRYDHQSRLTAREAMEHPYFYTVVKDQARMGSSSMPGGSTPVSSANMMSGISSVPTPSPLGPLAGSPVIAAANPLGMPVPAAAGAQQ

SMILES	IC50 (Class I PI3-kinases; read-out: IC50 against each of the various Class I PI3-kinases) [µM]	IC50 (CK2 protein kinase) [µM]	IC50 (Class I PI3-kinases; Fruman et al. 1998, read-out: IC50 against each of these PI3-kinases) [µM]
COC[C@H]1OC(=O)c2coc3c2[C@@]1(C)C1=C(C3=O)[C@@H]2CCC(=O)[C@@]2(C)C[C@H]1OC(C)=O [wortmannin]	0.001 to 0.01		
O=c1cc(N2CCOCC2)oc2c(-c3ccccc3)cccc12 [LY294002]		5 to 10	15 to 20
